In ChEMBL document CHEMBL4665808, “Krisynomycins, Imipenem Potentiators against Methicillin-Resistant Staphylococcus aureus, Produced by Streptomyces canus” (2020) one finds MIC data, which are given here for four compounds.

As usually defined, the MIC is the least concentration at which growth counts as inhibited.

Common to all, as to assay type: functional
The subject of experiment [1] is Staphylococcus aureus. Nature of the experiment: Potentiation of imipenem-induced activity antibacterial against methicillin-resistance Staphylococcus aureus MB5393 in presence of 4 ug/ml imipenem by broth dilution method. (In general: In broth dilution the organism is exposed to a series of concentrations in liquid medium.)
Experiment [2] has as its system Staphylococcus aureus. The experiment is described as follows: Potentiation of imipenem-induced activity antibacterial against methicillin-resistance Staphylococcus aureus MB5393 in presence of 2 ug/ml imipenem by broth dilution method.
Experiment [3] concerns Staphylococcus aureus. The experiment is described as follows: Potentiation of imipenem-induced activity antibacterial against methicillin-resistance Staphylococcus aureus MB5393 in presence of 1 ug/ml imipenem by broth dilution method.
Experiment [4] has as its system Staphylococcus aureus. Nature of the experiment: Antibacterial against methicillin-resistance Staphylococcus aureus MB5393 by broth dilution method.

≈ marks a conversion by molar mass, not a printed value.

Consider `CC(C)=CCc1cccc2[nH]cc(C[C@@H]3NC(=O)[C@H](Cc4c[nH]c5ccccc45)NC(=O)[C@@H]4CCCN4C(=O)[C@@H](CS(=O)(=O)O)NC(=O)[C@@H](NC(=O)[C@@H](NC(=O)[C@H](C)NC(=O)CC(=O)O)C(C)C)COC(=O)[C@H](CO)NC(=O)[C@@H](CC(C)C)NC(=O)[C@@H](C(C)C)NC3=O)c12`, for which the MIC is 8 µg/mL in experiment [1], 16 µg/mL in experiment [2], 16 µg/mL in experiment [3] and above 128 µg/mL in experiment [4].
For `CC(C)=CCc1ccc(Cl)c2[nH]cc(C[C@@H]3NC(=O)[C@H](Cc4c[nH]c5c(Cl)cccc45)NC(=O)[C@@H]4CCCN4C(=O)[C@@H](CS(=O)(=O)O)NC(=O)[C@@H](NC(=O)[C@@H](NC(=O)[C@H](C)NC(=O)CC(=O)O)C(C)C)COC(=O)[C@H](CO)NC(=O)[C@@H](CC(C)C)NC(=O)[C@@H](C(C)C)NC3=O)c12`, the MIC in experiment [1] is 0.25 µg/mL; in experiment [2], 0.5 µg/mL; in experiment [3], 0.5 µg/mL; in experiment [4], 16 µg/mL (≈ 11.4 µM).
Compound `C[C@@H](O)[C@H]1C(=O)N2C(C(=O)O)=C(SCCNC=N)C[C@H]12` [IMIPENEM ANHYDROUS] came in with an MIC in experiment [4] of 16 µg/mL (≈ 53.4 µM).
Consider `CC(C)=CCc1cccc2[nH]cc(C[C@@H]3NC(=O)[C@H](Cc4c[nH]c5c(Cl)cccc45)NC(=O)[C@@H]4CCCN4C(=O)[C@@H](CS(=O)(=O)O)NC(=O)[C@@H](NC(=O)[C@@H](NC(=O)[C@H](C)NC(=O)CC(=O)O)C(C)C)COC(=O)[C@H](CO)NC(=O)[C@@H](CC(C)C)NC(=O)[C@@H](C(C)C)NC3=O)c12`, for which the MIC in experiment [1] is 2 µg/mL; in experiment [2], 4 µg/mL; in experiment [3], 4 µg/mL; in experiment [4], above 128 µg/mL.
